Experiment [1] deals with T1, human GPR40 (Homo sapiens, UniProt O14842).
T1 construct: expressed in transfected cells; host or cells: CHO cells stably transfected with GPR40 and Aequorin
Put plainly: Cell-based aequorin assay. To be noted: CHO cells stably transfected with GPR40 and aequorin; 0.01% HSA. Here is the method: Cell-based aequorin assays were employed to characterize the modulatory activity of compounds on the GPR40 signaling pathway. In an exemplary assay, CHO cells were stably transfected with both GPR40 and Aequorin (Euroscreen). Cells were detached from the tissue culture dish with 2 mL of trypsin (0.25% (w/v)). Trypsinization was halted with 28 mL of Hanks Buffered Salt Solution containing 20 mM Hepes (H/HBSS) and 0.01% fatty acid-free human serum albumin (HSA). Coelantrazine is added to 1 ug/mL, and the cells were incubated for 2 hours at room temperature. Compounds were dissolved in DMSO for preparation of 10 mM stock solutions. Compounds were diluted in H/HBSS containing 0.01% HSA. Serial dilutions of the test compounds were prepared to determine dose response.
Aequorin luminescence measurements were made using an EG&G Berthold 96-well luminometer, and the response was measured over a 20 second interval after cells and compounds were mixed. The maximum relative light units was plotted to determine dose response. The EC50 (effective concentration to reach 50% maximal response) was determined from the dose response plot.

Experiment [2] has as its target T1, human GPR40. Put plainly: Inositol phosphate accumulation assay. It is filed as cell-based. The settings on record: A9 cell line stably transfected with GPR40; 1 hour at 37° C.; read-out: IP3 EC50. Here is the method:
An A9 cell line stably transfected with GPR40 (A9_GPR40) was used in IP accumulation assays. A9_GPR40 cells were plated in 96-well plates containing 20,000 cells/well in DMEM containing 10% FBS. After the cells attached to the well surface, the media was replaced with inositol free DMEM containing 10% dialyzed FBS and 1 μCi, mL ^3H-inositol and incubated for 16 hours. Compounds were diluted in HBSS/10 mM LiCl containing a desired amount of HSA and added directly to cells. Following 1 hour incubation at 37° C., the media was replaced with 100 μL of 20 mM formic acid to quench the reaction. 50 μL of the extract was then added to 100 μL of SPA beads, incubated overnight, and measured on a TopCount the following day.

A value given as a limit tells only on which side of the number the result lay.

T1 sequence (O14842 whole entry): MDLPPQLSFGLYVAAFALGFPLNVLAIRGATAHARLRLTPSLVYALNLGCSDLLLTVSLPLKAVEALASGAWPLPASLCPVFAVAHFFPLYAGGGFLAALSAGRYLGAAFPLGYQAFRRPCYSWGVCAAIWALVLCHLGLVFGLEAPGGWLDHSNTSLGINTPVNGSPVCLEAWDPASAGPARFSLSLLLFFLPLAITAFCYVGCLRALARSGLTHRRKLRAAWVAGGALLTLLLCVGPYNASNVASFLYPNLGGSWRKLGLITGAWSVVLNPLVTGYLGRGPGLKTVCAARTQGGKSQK

What is called EC50 is the concentration needed to bring the measured effect to its halfway point. Regarding `COc1ccc(F)c(-c2ccc(COc3ccc4c(c3)[C@]3(CCC4)CC[C@@H]3C(=O)O)cc2C2=CCCC2(C)C)c1` (single isomer, unassigned) [Example 158], the results for the EC50 at human GPR40 [1] and at human GPR40 [2] were 100 to 1000 nM and 10 to 100 nM, respectively.
The matching figures for `COc1cc(-c2ccc(COc3cc(F)c4c(c3F)[C@]3(CC4)C[C@H]3C(=O)O)cc2[C@@H]2CCCC2(C)C)c(F)cn1` (single isomer, unassigned) [Example 41, (1R,2R)-6′-(3-((R)-2,2-dimethylcyclopentyl)-4-(5-fluoro-2-methoxypyridin-4-yl)benzyloxy)-4′,7′-difluoro-2′,3′-dihydrospiro[cyclopropane-1,1′-indene]-2-carboxylic acid or (1S,2S)-6′-(3-((R)-2,2-dimethylcyclopentyl)-4-(5-fluoro-2-methoxypyridin-4-yl)benzyloxy)-4′,7′-difluoro-2′,3′-dihydrospiro[cyclopropane-1,1′-indene]-2-carboxylic acid]: 100 to 1000 nM and under 10 nM.
`COc1cc(-c2ccc(COc3cc(F)c4c(c3F)[C@]3(CC4)C[C@H]3C(=O)O)cc2[C@H](OC)C(C)(C)C)c(F)cn1` (single isomer, unassigned) [Example 127]: the EC50 at human GPR40 [1] was 100 to 1000 nM; at human GPR40 [2] it was under 10 nM.
For `COc1ccc(F)c(-c2ccc(COc3ccc4c(c3)[C@]3(CC4)C[C@H]3C(=O)O)cc2C2(OC)CCCC2)c1` [Example 22], the results for the EC50 at human GPR40 [1] and on human GPR40 [2] were 100 to 1000 nM and 10 to 100 nM, respectively.
As to `COc1cc(-c2ccc(COc3cc4c(cn3)CC[C@@]43C[C@@H]3C(=O)O)cc2[C@@H](OC)C(C)(C)C)c(F)cn1` (single isomer, unassigned) [Example 59, (2′S,5S)-3-({4-(5-Fluoro-2-methoxypyridin-4-yl)-3-[(1S)-1-methoxy-2,2-dimethylpropyl]phenyl}methoxy)-6,7-dihydrospiro[cyclopenta[c]pyridine-5,1′-cyclopropane]-2′-carboxylic acid or (2′S,5S)-3-({4-(5-fluoro-2-methoxypyridin-4-yl)-3-[(1R)-1-methoxy-2,2-dimethylpropyl]phenyl}methoxy)-6,7-dihydrospiro[cyclopenta[c]pyridine-5,1′-cyclopropane]-2′-carboxylic acid], the EC50 at human GPR40 [1] and at human GPR40 [2] was 100 to 1000 nM each time.
In the case of `COc1ccc(F)c(-c2ccc(COc3ccc4c(c3)[C@]3(CC4)C[C@H]3C(=O)O)cc2[C@H]2CCCC2(C)C)c1` (single isomer, unassigned) [Example 11], the half-maximal effective concentration (EC50) was 10 to 100 nM at human GPR40 [1] and under 10 nM at human GPR40 [2].
`COc1ccc(F)c(-c2ccc(COc3ccc4c(c3F)[C@]3(CCC4)C[C@H]3C(=O)O)cc2[C@@H](OC)C(C)(C)C)c1` (single isomer, unassigned) [Example 54]: the EC50 on human GPR40 [1] was 10 to 100 nM; on human GPR40 [2], under 10 nM.
For `COc1cc(-c2ccc(COc3ccc4c(c3)[C@]3(CC4)C[C@H]3C(=O)O)cc2[C@@H](OC)C(C)(C)C)c(F)cn1` (single isomer, unassigned) [Example 28] the same measures were 100 to 1000 nM and under 10 nM.
The matching figures for `COc1ccc(F)c(-c2ccc(COc3ccc4c(c3)C3(CC4)CCC3C(=O)O)cc2C(OC)C(C)(C)C)c1` (single isomer, unassigned) [Example 149]: 100 to 1000 nM and under 10 nM.
The matching figures for `COc1ccc(F)c(-c2ccc(COc3ccc4c(c3)[C@]3(CCC4)C[C@H]3C(=O)O)cc2[C@H]2CCCC2(C)C)c1` (single isomer, unassigned) [Example 47]: 10 to 100 nM and under 10 nM.
With `COc1ccc(F)c(-c2ccc(COc3ccc4c(c3)C3(CC4)CCC3C(=O)O)cc2[C@@H]2CCCC2(C)C)c1` (single isomer, unassigned) [Example 148], the values for the EC50 on human GPR40 [1] and on human GPR40 [2] were 100 to 1000 nM and 10 to 100 nM, respectively.
For the compound `COc1cc(-c2ccc(COc3ccc4c(c3F)[C@]3(CCC4)C[C@H]3C(=O)O)cc2[C@@H]2CCCC2(C)C)c(F)cn1` [Example 55], the values for the EC50 at human GPR40 [1] and at human GPR40 [2] were 100 to 1000 nM and under 10 nM, respectively.

The values are drawn from patent US8748462B2, “Spirocyclic GPR40 modulators” (Amgen Inc., priority 2008, dated 2014).
